Data: patent publication US20230219900A1, “Sodium 2-[(4S)-8-fluoro-2-[4-(3-methoxyphenyl)piperazin-1-yl]-3-[2-methoxy-5-(trifluoromethyl)phenyl]-4H-quinazolin-4-yl]acetate monohydrate, its preparation and use” (AIC246 AG & CO. KG, priority 2020, published 2023)

Legend:
Assay type in all cases: physicochemical
[1] = Stability experiments: ageing (humidity chamber)
[2] = Thermal stability / decomposition by thermogravimetric analysis (TGA)
Protocol: Thermogravimetric analysis (TGA): Thermogravimetric analyses were recorded in a Mettler Toledo TGA/SDTA851 with a balance MT1 type. Approximately 3-4 mg of sample were weighed (using a MX5 Mettler Toledo microbalance) into 40 μL aluminium crucibles with a pinhole lid and heated under nitrogen (10 mL/min) at 10° C./min from 30° C. to 300° C. Programs used: Data collection and evaluation with software STARe.

[3] = Stability experiments: ageing (ambient conditions); conditions: for Time stable at ambient conditions: monohydrate
[4] = Stability experiments: heating (vacuum oven); conditions: 2-3 mbar
[5] = Storage stability in an aqueous medium; conditions: in particular at physiological pH
Dynamic vapor sorption = test: Dynamic vapor sorption
Protocol: The sodium (S)-{8-fluoro-2-[4-(3-methoxyphenyl)piperazine-1-yl]-3-[2-methoxy (trifluoromethyl)phenyl]-3,4-dihydroquinazoline-4-yl}acetate monohydrate obtained from examples 07 and 08 were analyzed using X-Ray Diffraction, NMR spectroscopy, Thermal gravimetric analysis, Differential scanning calorimetry and dynamic vapor sorption.

[6] = Solubility in an aqueous medium; conditions: in particular at physiological pH

Compound	Stability, ageing (humidity chamber) ([1]; 25° C./60% RH, 24-72 hours)	Decomposition temperature (TGA) ([2]; TGA)	Stability under ambient conditions (in words) [3]	Stability, ageing (ambient conditions) ([3]; 25° C., 30-40% RH, 24 hours)	Stability, ageing (ambient conditions) ([3]; within 24 hours)	Stability, heating (vacuum oven) ([4]; 40° C., 15 h)	Stability, heating (vacuum oven) ([4]; 50° C., 60 h)	Stability, ageing (humidity chamber) ([1]; 25° C./60% RH, 72 hours)	Stability, ageing (humidity chamber) ([1]; 30° C./75% RH, 48 hours)	Ageing at higher temperatures and higher humidity ([1]; higher temperatures and higher humidity)	Storage stability [5]	Temperature up to which thermally stable (TGA) ([2]; as judged by TGA)	Dynamic vapor sorption weight increase (Dynamic vapor sorption; from 10 to 80% RH)	Dynamic vapor sorption weight increase (Dynamic vapor sorption; from 80 to 90% RH)	Stability, ageing (ambient conditions, closed vial) ([3]; after 4 weeks)	Time stable at ambient conditions ([3]; listed as Form B)	Time stable at ambient conditions [3]	Solubility [6]
COc1cccc(N2CCN(C3=Nc4c(F)cccc4[C@H](CC(=O)[O-])N3c3cc(C(F)(F)F)ccc3OC)CC2)c1.[Na+] [Form A, Sodium (S)-{8-fluoro-2-[4-(3-methoxyphenyl)piperazine-1-yl]-3-[2-methoxy-5-(trifluoromethyl)phenyl]-3,4-dihydroquinazoline-4-yl}acetate]	25° C./60% RH, 24-72 hours: Turns into	Decomposition at ca. 250 °C	not stable under ambient conditions	25° C., 30-40% RH, 24 hours: Turns into	Complete transition into Form B within in													
COc1cccc(N2CCN(C3=Nc4c(F)cccc4[C@H](CC(=O)[O-])N3c3cc(C(F)(F)F)ccc3OC)CC2)c1.O.[Na+] [sodium letermovir monohydrate, sodium 2-[(4S)-8-fluoro-2-[4-(3-methoxyphenyl)piperazin-1-yl]-3-[2-methoxy-5-(trifluoromethyl)phenyl]-4H-quinazolin-4-yl]acetate monohydrate]						40° C., 2-3 mbar, 15 h: No changes,	50° C., 2-3 mbar, 60 h: No changes	25° C./60% RH, 72 hours: minor changes	30° C./75% RH, 48 hours: amorphous	does not age	good storage stability	above 80 °C	>9.5% weight increase from 10 to 80% RH	>8% weight increase from 80 to 90% RH	No significant changes after 4 weeks.	over 6 months	over 4 weeks	readily soluble
